Here are results for 11 compounds from patent US20230131899A1, “INHIBITORS OF MICROBIALLY INDUCED AMYLOID” (Axial Therapeutics, Inc., priority 2020, published 2023).

Read-outs that look alike come from different tables or passages of the source. Where only a bound is given, the exact number is not on record here.

Experiment [1] deals with CsgA gene expression (csgBAC promoter-GFP reporter) in E. coli UTI89. Put plainly: In vitro live cell fluorescent reporter assay of CsgA transcription (Reporter Assay). In kind it is cell-based. Particulars: Escherichia coli. Put shortly: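 Chromosomal single-copy csgBAC promoter–GFP reporter in E. coli UTI89, started at OD600 0.003 in YESCA broth with compound (0.14–100 μM, 1% DMSO), 20 h at 27 °C. GFP (ex 485/em 525 nm) background-subtracted and normalized to vehicle; IC50 and X[50] from curve fits. OD600 tracked growth effects.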
(Reporter assays use an easily measured gene product as a stand-in for the process of interest.)

Another experiment deals with T1, E. coli CsgA (Escherichia coli, UniProt P28307).
T1 construct: made in house; host or cells: E. coli NEB 3016 slyD::kan, pET11d
Kind of experiment: In vitro ThioflavinT assay of CsgA aggregation (CsgA ThT Assay). In kind it is biochemical. Conditions: for remaining activity at 25 µM: compound 25 μM. Put shortly:
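Purified C-terminal His-tagged CsgA, monomerised by desalting and 30-kDa filtration, at 2-20 μM with 20-40 μM ThT in 50 mM potassium phosphate pH 7.3, 1% DMSO, compounds 3.125-200 uM; room temperature, fluorescence (ex 438/em 495 nm) read every 15 min. Background-subtracted signal expressed as percent inhibition versus vehicle at 6-6.5 or 8-9 h, or as percent control AUC.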

The mark [2] stands for this setting: read-out: Reporter Assay Abs IC50 (activity range), median Abs IC50 in the CsgA reporter assay, class symbol.
Where [3] appears, read: read-out: Reporter Assay Abs IC50 (μM), median Abs IC50 in the CsgA reporter assay, N/A = maximum expression reduction is <50% of control.
Setting [4] is: read-out: CsgA ThT Assay (10 μM CsgA) % Control AUC at 1005 minutes, 25 μM (activity range), CsgA 10 μM, black plates, 1005 minutes, class symbol.
Where [5] appears, read: read-out: CsgA ThT Assay (10 μM CsgA) % Control AUC at 1005 minutes, 25 μM, mean AUC as % of DMSO control, CsgA 10 μM, black plates, 1005 minutes.
Setting [6] is: read-out: CsgA ThT Assay (10 μM CsgA) % Control AUC at 1005 minutes, 100 μM (activity range), CsgA 10 μM, black plates, compound 100 μM, 1005 minutes, class symbol.
Setting [7] is: read-out: CsgA ThT Assay (10 μM CsgA) % Control AUC at 1005 minutes, 100 μM, mean AUC as % of DMSO control, CsgA 10 μM, black plates, compound 100 μM, 1005 minutes.
Where [8] appears, read: read-out: Reporter Assay Abs IC50, activity range, class symbol.
The mark [9] stands for this setting: read-out: CsgA ThT Assay (2 μM CsgA) % Control Bmax 25 μM, activity range, class symbol, CsgA 2 μM, white plates.
The mark [10] stands for this setting: read-out: CsgA ThT Assay (2 μM CsgA) % Control Bmax 25 μM, mean Bmax as percentage of DMSO control, CsgA 2 μM, white plates.
Setting [11] is: read-out: CsgA ThT Assay (2 μM CsgA) % Control Bmax 100 μM, activity range, class symbol, CsgA 2 μM, white plates, compound 100 μM.
The mark [12] stands for this setting: read-out: CsgA ThT Assay (2 μM CsgA) % Control Bmax 100 μM, mean Bmax as percentage of DMSO control, CsgA 2 μM, white plates, compound 100 μM.

In general, IC50 refers to the concentration that inhibits the measured activity by half.

T1 sequence (P28307 23-151): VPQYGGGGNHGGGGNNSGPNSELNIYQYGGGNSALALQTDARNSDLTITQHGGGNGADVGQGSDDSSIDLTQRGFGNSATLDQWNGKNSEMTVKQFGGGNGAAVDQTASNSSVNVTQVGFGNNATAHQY

For `CCCc1c(Cc2cccc3ccccc23)c(-c2cccc(C(F)(F)F)c2)c2n(c1=O)C(C(=O)O)CN(C)S2(=O)=O` (stereo not drawn) [Compound 090, 2-methyl-8-(naphthalen-1-ylmethyl)-6-oxo-7-propyl-9-(3-(trifluoromethyl)phenyl)-3,4-dihydro-2H,6H-pyrido[1,2-e][1,2,5]thiadiazine-4-carboxylic acid 1,1-dioxide], the IC50 in experiment [1] (setting [2]) is 4.6 to 10 µM; in experiment [1] (setting [3]) it was 5.9 µM. Moreover, the remaining activity at 25 µM at E. coli CsgA (setting [4]) is 31 to 60%; on E. coli CsgA (setting [5]), 54%. For the same compound, the remaining activity at 100 µM at E. coli CsgA (setting [6]) is 11 to 31%; at E. coli CsgA (setting [7]), 30%.
`CCCN1CC(C(=O)O)n2c(c(-c3cccc(C(F)(F)F)c3)c(Cc3cccc4ccccc34)c(CC)c2=O)S1(=O)=O` (stereo not drawn) [Compound 117, 7-ethyl-8-(naphthalen-1-ylmethyl)-6-oxo-2-propyl-9-(3-(trifluoromethyl)phenyl)-3,4-dihydro-2H,6H-pyrido[1,2-e][1,2,5]thiadiazine-4-carboxylic acid 1,1-dioxide]: the half-inhibitory concentration (IC50) in experiment [1] (setting [2]) was 4.6 to 10 µM; in experiment [1] (setting [3]), 5.9 µM. Moreover, the values for the remaining activity at 25 µM on E. coli CsgA (setting [4]) and at E. coli CsgA (setting [5]) were 31 to 60% and 32%, respectively. For the same compound, the remaining activity at 100 µM was 11 to 31% on E. coli CsgA (setting [6]) and 22% on E. coli CsgA (setting [7]).
For `O=C(O)C1CN(Cc2ccccc2)c2c(-c3cccc(C(F)(F)F)c3)c(Cc3cccc4cccnc34)c(Cl)c(=O)n21` (stereo not drawn) [Compound 213, 1-benzyl-6-chloro-5-oxo-7-(quinolin-8-ylmethyl)-8-(3-(trifluoromethyl)phenyl)-1,2,3,5-tetrahydroimidazo[1,2-a]pyridine-3-carboxylic acid], the IC50 in experiment [1] (setting [3]) is 9.1 µM; in experiment [1] (setting [8]), 4.6 to 10 µM. For the same compound, the remaining activity at 25 µM is over 60% on E. coli CsgA (setting [9]) and 72% on E. coli CsgA (setting [10]). Besides, the remaining activity at 100 µM is 31 to 60% at E. coli CsgA (setting [11]) and 44% at E. coli CsgA (setting [12]).
On to `O=C(O)CC1CS(=O)(=O)c2c(-c3cccc(C(F)(F)F)c3)c(Cc3cccc4ccccc34)cc(=O)n21` (stereo not drawn) [Compound 130, 2-(7-(naphthalen-1-ylmethyl)-1,1-dioxido-5-oxo-8-(3-(trifluoromethyl)phenyl)-2,3-dihydro-5H-thiazolo[3,2-a]pyridin-3-yl)acetic acid], for which the concentration for half-maximal inhibition (IC50) is over 10 µM in experiment [1] (setting [2]) and 14.8 µM in experiment [1] (setting [3]). Further, the remaining activity at 25 µM on E. coli CsgA (setting [4]) is 31 to 60%; at E. coli CsgA (setting [5]), 49%. Besides, the figures for the remaining activity at 100 µM at E. coli CsgA (setting [6]) and at E. coli CsgA (setting [7]) were 11 to 31% and 15%, respectively.
For the compound `CCCCN1CC(C(=O)O)n2c(c(-c3cccc(C(F)(F)F)c3)c(Cc3cccc4ccccc34)cc2=O)S1(=O)=O` (single isomer, unassigned) [Compound 021a, 2-butyl-8-(naphthalen-1-ylmethyl)-6-oxo-9-(3-(trifluoromethyl)phenyl)-3,4-dihydro-2H,6H-pyrido[1,2-e][1,2,5]thiadiazine-4-carboxylic acid 1,1-dioxide], the values for the 50% inhibitory concentration (IC50) in experiment [1] (setting [2]) and in experiment [1] (setting [3]) were 1.3 to 4.5 µM and 3.3 µM, respectively. Besides, the “CsgA ThT Assay (10 μM CsgA) % Control AUC at 1005 minutes, 100 μM” value on E. coli CsgA (mean AUC as % of DMSO control, CsgA 10 μM, black plates, compound 100 μM, 1005 minutes) was determined as 73%. Further, the remaining activity at 25 µM on E. coli CsgA (setting [4]) is 31 to 60%; on E. coli CsgA (setting [5]), 36%. Also, the remaining activity at 100 µM at E. coli CsgA (setting [6]) was over 60%.
For the compound `CCCN1CC(C(=O)O)n2c(c(-c3cccc(C(F)(F)F)c3)c(Cc3cccc4ccccc34)c(OCCc3ccccc3)c2=O)S1(=O)=O` (stereo not drawn) [Compound 001, 8-(naphthalen-1-ylmethyl)-6-oxo-7-phenethoxy-2-propyl-9-(3-(trifluoromethyl)phenyl)-3,4-dihydro-2H,6H-pyrido[1,2-e][1,2,5]thiadiazine-4-carboxylic acid 1,1-dioxide], the IC50 in experiment [1] (setting [2]) was 1.3 to 4.5 µM; in experiment [1] (setting [3]) it was 1.5 µM. Further, the remaining activity at 25 µM on E. coli CsgA (setting [4]) was 31 to 60%; on E. coli CsgA (setting [5]) it was 36%. In addition, the remaining activity at 100 µM is 31 to 60% on E. coli CsgA (setting [6]) and 35% at E. coli CsgA (setting [7]).
On to `CCCN1CC(C(=O)O)n2c(c(-c3cccc(C(F)(F)F)c3)c(Cc3cccc4ccccc34)c(C3CC3)c2=O)S1(=O)=O` (stereo not drawn) [Compound 132, 7-cyclopropyl-8-(naphthalen-1-ylmethyl)-6-oxo-2-propyl-9-(3-(trifluoromethyl)phenyl)-3,4-dihydro-2H,6H-pyrido[1,2-e][1,2,5]thiadiazine-4-carboxylic acid 1,1-dioxide], for which the half-maximal inhibitory concentration (IC50) in experiment [1] (setting [3]) was 2.4 µM; in experiment [1] (setting [8]) it was 1.3 to 4.5 µM. In addition, the remaining activity at 25 µM at E. coli CsgA (setting [9]) is over 60%; on E. coli CsgA (setting [10]), 76%. In addition, the remaining activity at 100 µM at E. coli CsgA (setting [11]) was over 60%; on E. coli CsgA (setting [12]), 122%.
Turning to `CCCCCN1CC(C(=O)O)n2c(c(-c3cccc(C(F)(F)F)c3)c(Cc3ccc(N)c4ccccc34)cc2=O)S1(=O)=O` (stereo not drawn) [Compound 052], the half-maximal inhibitory concentration (IC50) in experiment [1] (setting [2]) was under 1.3 µM; in experiment [1] (setting [3]), 1.1 µM. Besides, the remaining activity at 25 µM on E. coli CsgA (setting [4]) is 31 to 60%; at E. coli CsgA (setting [5]) it was 42%. For the same compound, the remaining activity at 100 µM on E. coli CsgA (setting [6]) was 11 to 31%; on E. coli CsgA (setting [7]), 20%.
Consider `CN1CC(C(=O)O)n2c(c(-c3cccc(C(F)(F)F)c3)c(Cc3cccc4ccccc34)c(NC3CCOCC3)c2=O)S1(=O)=O` (stereo not drawn) [Compound 072, 2-methyl-8-(naphthalen-1-ylmethyl)-6-oxo-7-((tetrahydro-2H-pyran-4-yl)amino)-9-(3-(trifluoromethyl)phenyl)-3,4-dihydro-2H,6H-pyrido[1,2-e][1,2,5]thiadiazine-4-carboxylic acid 1,1-dioxide], for which the results for the concentration for half-maximal inhibition (IC50) in experiment [1] (setting [2]) and in experiment [1] (setting [3]) were 4.6 to 10 µM and 6.9 µM, respectively. Further, the remaining activity at 25 µM at E. coli CsgA (setting [4]) was 11 to 31%; on E. coli CsgA (setting [5]), 24%. Moreover, the remaining activity at 100 µM at E. coli CsgA (setting [6]) was under 10%; at E. coli CsgA (setting [7]), 10%.
Take `CN1CC(C(=O)O)n2c(c(-c3cccc(C(F)(F)F)c3)c(Cc3cccc4ccccc34)c(N3CCNCC3)c2=O)S1(=O)=O` (stereo not drawn) [Compound 102, 2-methyl-8-(naphthalen-1-ylmethyl)-6-oxo-7-(piperazin-1-yl)-9-(3-(trifluoromethyl)phenyl)-3,4-dihydro-2H,6H-pyrido[1,2-e][1,2,5]thiadiazine-4-carboxylic acid 1,1-dioxide]: the IC50 in experiment [1] (setting [2]) is 4.6 to 10 µM; in experiment [1] (setting [3]), 5.4 µM. The remaining activity at 25 µM at E. coli CsgA (setting [4]) was over 60%; on E. coli CsgA (setting [5]) it was 90%. Further, the remaining activity at 100 µM on E. coli CsgA (setting [6]) is 31 to 60%; on E. coli CsgA (setting [7]), 57%.
As to `CCc1c(Cc2cccc3ccccc23)c(-c2cccc(C(F)(F)F)c2)c2n(c1=O)C(C(=O)O)CN(CCCO)S2(=O)=O` (stereo not drawn) [Compound 112, 7-ethyl-2-(3-hydroxypropyl)-8-(naphthalen-1-ylmethyl)-6-oxo-9-(3-(trifluoromethyl)phenyl)-3,4-dihydro-2H,6H-pyrido[1,2-e][1,2,5]thiadiazine-4-carboxylic acid 1,1-dioxide], the 50% inhibitory concentration (IC50) in experiment [1] (setting [2]) was 4.6 to 10 µM; in experiment [1] (setting [3]), 9 µM. Besides, the remaining activity at 25 µM is 31 to 60% on E. coli CsgA (setting [4]) and 35% on E. coli CsgA (setting [5]). The remaining activity at 100 µM at E. coli CsgA (setting [6]) is 11 to 31%; at E. coli CsgA (setting [7]), 20%.
